According to patent publication US20050014766A1, “Use of n-(indolecarbonyl-)piperazine derivatives” (priority 2002, published 2005):

Columns and labels:
[1] = Feeding experiment on Beagle hounds (body weight, feed consumption, behaviour and general state); assay type: in vivo
Method: The efficacy of the compounds of the formula I for the treatment of obesity can be determined in vivo as follows (cf. Example B): A certain dose or varying doses of the test compound is administered to one group of experimental animals over an extended period. The amount of feed consumed and the body weight of the experimental animals are recorded regularly. At the same time, the behaviour and general state of the animals are monitored in a manner known per se. Conclusions can be drawn on the suitability of the test compound for the treatment of obesity from the decrease in the body weight and the take-up of feed in the experimental period with an otherwise unchanged general state and in the absence of changes in behaviour. The test substance in the form of hard gelatine capsules produced as described in Example B7 is administered once daily over a period of 11 days to a group of Beagle hounds about 8 months old which had been dewormed in advance. The amount of feed consumed is determined daily by re-weighing the unconsumed feed, the body weight before (day 0), during (day 5) and after (day 12) the feeding experiment. At the same time, the behaviour and general state of the animals are monitored over the entire experimental period. Drinking water in unlimited amount is available to the dogs. […] The behaviour and general state of the dogs are not impaired in the experimental period by the administration of the test substance.

[2] = as above; assay type: in vivo; remark: listed apart in the source
[3] = Beagle hounds, once daily oral capsules over 11 days

Question: Which body weight ([1]; Dog 8910 (male), day 0, before dosing) does the source give for `Cl.N#Cc1c[nH]c2c(C(=O)N3CCN(CCc4ccc(F)cc4)CC3)cccc12` [(3-cyano-1H-indol-7-yl)[4-(4-fluoro-phenethyl)piperazin-1-yl]methanone, hydrochloride] here?
Answer: 8.6 kg

Question: And the feed consumption ([1]; Dog 8910 (male), day 2, dose 10 mg/kg)?
Answer: 320 g

Question: What about the body weight ([1]; Dog 8910 (male), day 5, once daily capsules 3, 10, 30 mg/kg days 1-3, 100 mg/kg from day 4) of the same compound?
Answer: 8.6 kg

Question: What about the feed consumption ([1]; Dog 8910 (male), day 6, dose 100 mg/kg) of the same compound?
Answer: 240 g

Question: What about the feed consumption ([1]; Dog 8910 (male), day 10, dose 100 mg/kg) of the same compound?
Answer: 20 g

Question: And the body weight ([1]; Dog 8910 (male), day 12, after 3, 10, 30 mg/kg days 1-3 and 100 mg/kg days 4-11)?
Answer: 7.8 kg

Question: What about the feed consumption ([1]; Dog 8936 (female), day 6, dose 100 mg/kg) of the same compound?
Answer: 140 g

Question: What about the “behaviour and general state of the dogs” value ([2]; Beagle hounds, experimental period, doses up to 100 mg/kg) of the same compound?
Answer: not impaired

Question: And the “body weight change (in words)” value [2, 3]?
Answer: significant reduction in body weight

Question: And the “consumption of feed during the experiment (in words)” value [2, 3]?
Answer: increasingly restrict the consumption of feed

Question: And the body weight ([2]; Dog 1201 (male), day 0, before dosing)?
Answer: 6.8 kg

Question: And the feed consumption ([2]; Dog 1201 (male), day 1, no dose yet (dosing starts day 5))?
Answer: 440 g

Question: What about the feed consumption ([2]; Dog 1201 (male), day 2, no dose yet (dosing starts day 5)) of the same compound?
Answer: 260 g

Question: And the feed consumption ([2]; Dog 1201 (male), day 3, no dose yet (dosing starts day 5))?
Answer: 400 g

Question: What about the feed consumption ([2]; Dog 1201 (male), day 4, no dose yet (dosing starts day 5)) of the same compound?
Answer: 230 g

Question: And the feed consumption ([2]; Dog 1201 (male), day 5, dose 50 mg/kg)?
Answer: 340 g

Question: What about the body weight ([2]; Dog 1201 (male), day 5, first day of 50 mg/kg) of the same compound?
Answer: 7.1 kg

Question: And the feed consumption ([2]; Dog 1201 (male), day 6, dose 50 mg/kg)?
Answer: 220 g

Question: What about the feed consumption ([2]; Dog 1201 (male), day 7, dose 50 mg/kg) of the same compound?
Answer: 160 g

Question: And the feed consumption ([2]; Dog 1201 (male), day 8, dose 50 mg/kg)?
Answer: 170 g

Question: What about the feed consumption ([2]; Dog 1201 (male), day 9, dose 50 mg/kg) of the same compound?
Answer: 130 g

Question: What about the feed consumption ([2]; Dog 1201 (male), day 10, dose 50 mg/kg) of the same compound?
Answer: 80 g

Question: What about the feed consumption ([2]; Dog 1201 (male), day 11, dose 50 mg/kg) of the same compound?
Answer: 40 g

Question: And the body weight ([2]; Dog 1201 (male), day 12, after 50 mg/kg days 5-11)?
Answer: 6.3 kg

Question: What about the body weight ([2]; Dog 2164 (female), day 0, before dosing) of the same compound?
Answer: 6.1 kg

Question: What about the feed consumption ([2]; Dog 2164 (female), day 1, no dose yet (dosing starts day 5)) of the same compound?
Answer: 310 g

Question: What about the feed consumption ([2]; Dog 2164 (female), day 2, no dose yet (dosing starts day 5)) of the same compound?
Answer: 270 g

Question: What about the feed consumption ([2]; Dog 2164 (female), day 3, no dose yet (dosing starts day 5)) of the same compound?
Answer: 280 g

Question: What about the feed consumption ([2]; Dog 2164 (female), day 4, no dose yet (dosing starts day 5)) of the same compound?
Answer: 280 g

Question: What about the feed consumption ([2]; Dog 2164 (female), day 5, dose 50 mg/kg) of the same compound?
Answer: 340 g

Question: What about the body weight ([2]; Dog 2164 (female), day 5, first day of 50 mg/kg) of the same compound?
Answer: 5.9 kg

Question: And the feed consumption ([2]; Dog 2164 (female), day 6, dose 50 mg/kg)?
Answer: 180 g

Question: What about the feed consumption ([2]; Dog 2164 (female), day 7, dose 50 mg/kg) of the same compound?
Answer: 260 g

Question: What about the feed consumption ([2]; Dog 2164 (female), day 8, dose 50 mg/kg) of the same compound?
Answer: 150 g

Question: And the feed consumption ([2]; Dog 2164 (female), day 9, dose 50 mg/kg)?
Answer: 140 g

Question: What about the feed consumption ([2]; Dog 2164 (female), day 10, dose 50 mg/kg) of the same compound?
Answer: 130 g

Question: What about the feed consumption ([2]; Dog 2164 (female), day 11, dose 50 mg/kg) of the same compound?
Answer: 60 g

Question: What about the body weight ([2]; Dog 2164 (female), day 12, after 50 mg/kg days 5-11) of the same compound?
Answer: 5.5 kg

Question: And the feed consumption ([2]; Dog 8910 (male), day 1, dose 3 mg/kg)?
Answer: 380 g

Question: What about the feed consumption ([2]; Dog 8910 (male), day 3, dose 30 mg/kg) of the same compound?
Answer: 370 g

Question: What about the feed consumption ([2]; Dog 8910 (male), day 4, dose 100 mg/kg) of the same compound?
Answer: 320 g

Question: And the feed consumption ([2]; Dog 8910 (male), day 5, dose 100 mg/kg)?
Answer: 250 g

Question: What about the feed consumption ([2]; Dog 8910 (male), day 7, dose 100 mg/kg) of the same compound?
Answer: 60 g

Question: And the feed consumption ([2]; Dog 8910 (male), day 8, dose 100 mg/kg)?
Answer: 60 g

Question: What about the feed consumption ([2]; Dog 8910 (male), day 9, dose 100 mg/kg) of the same compound?
Answer: 40 g

Question: And the feed consumption ([2]; Dog 8910 (male), day 11, dose 100 mg/kg)?
Answer: 90 g

Question: And the body weight ([2]; Dog 8936 (female), day 0, before dosing)?
Answer: 7.5 kg

Question: What about the feed consumption ([2]; Dog 8936 (female), day 1, dose 3 mg/kg) of the same compound?
Answer: 380 g

Question: What about the feed consumption ([2]; Dog 8936 (female), day 2, dose 10 mg/kg) of the same compound?
Answer: 380 g

Question: And the feed consumption ([2]; Dog 8936 (female), day 3, dose 30 mg/kg)?
Answer: 360 g

Question: What about the feed consumption ([2]; Dog 8936 (female), day 4, dose 100 mg/kg) of the same compound?
Answer: 220 g

Question: What about the feed consumption ([2]; Dog 8936 (female), day 5, dose 100 mg/kg) of the same compound?
Answer: 200 g

Question: What about the body weight ([2]; Dog 8936 (female), day 5, once daily capsules 3, 10, 30 mg/kg days 1-3, 100 mg/kg from day 4) of the same compound?
Answer: 7.3 kg

Question: And the feed consumption ([2]; Dog 8936 (female), day 7, dose 100 mg/kg)?
Answer: 80 g

Question: What about the feed consumption ([2]; Dog 8936 (female), day 8, dose 100 mg/kg) of the same compound?
Answer: 30 g

Question: What about the feed consumption ([2]; Dog 8936 (female), day 9, dose 100 mg/kg) of the same compound?
Answer: 30 g

Question: And the feed consumption ([2]; Dog 8936 (female), day 10, dose 100 mg/kg)?
Answer: 70 g

Question: What about the feed consumption ([2]; Dog 8936 (female), day 11, dose 100 mg/kg) of the same compound?
Answer: 10 g

Question: What about the body weight ([2]; Dog 8936 (female), day 12, after 3, 10, 30 mg/kg days 1-3 and 100 mg/kg days 4-11) of the same compound?
Answer: 6.2 kg
